In patent publication US12291521B2, “Indazole compounds as mGluR4 allosteric potentiators, compositions, and methods of treating neurological dysfunction” (Vanderbilt University, priority 2017, dated 2025) one finds EC50 and Kp data, which are given here for six compounds.

The structures appear in SMILES notation. pEC50: −log10 of the molar value. Where two headings read alike, the source gives them in different places.

For orientation: pEC50 means −log10 of the EC50, conventionally taken in molar units. One may read the Kp as tissue or fluid exposure divided by exposure in the circulation.

One data set concerns the target T1, human mGlu4 (Homo sapiens, UniProt Q14833).
T1 construct: expressed in transfected cells; host or cells: CHO (Chinese Hamster Ovary) cells
The experiment in a line: mGlu4 PAM potentiation in human mGlu4/Gqi5 cells with ~EC20 glutamate (Hamamatsu FDSS). It counts as cell-based. As to conditions: ~EC20 concentration of glutamate. Here is the method: The disclosed compounds and compositions can be evaluated for their ability to act as a potentiatior of metabotropic glutamate receptor activity, in particular mGluR4 activity, by any suitable known methodology known in the art. For example, Chinese Hamster Ovary (CHO) cells transfected with human mGluR4 or HEK cells co-transfected with rat mGluR4 and the G-protein regulated Inwardly Rectifying Potassium channel (GIRK) were plated in clear bottom assay plates for assay in a Hamamatsu FDSS Fluorometric Plate Reader. The cells were loaded with either a Ca2+-sensitive fluorescent dye or the thallium responsive dye and the plates were washed and placed into a suitable kinetic plate reader. For human mGluR4 assays, a fluorescence baseline was established for 3-5 seconds, the disclosed compounds were then added to the cells, and the response in cells was measured. Approximately two and a half minutes later, a concentration of mGluR4 orthosteric agonist (e.g. glutamate, L-AP4, or L-SOP) eliciting approximately 20% (EC20) of the maximal agonist response was added to the cells, and the response was measured. Two minutes later, a concentration of mGluR4 agonist (e.g. glutamate, L-AP4, or L-SOP) eliciting 80% (EC80) of the maximal agonist response was added to the cells, and the response was measured. For rat mGluR4/GIRK experiments, a baseline was established for approximately five seconds, disclosed compounds were added, and either an EC20 or EC80 concentration of agonist was added approximately two and one half minutes later.
The above described assay operated in two modes. In the first mode, a range of concentrations of the disclosed compounds are added to cells, followed by a single fixed concentration of agonist. If the compound acts as a potentiatior, an EC50 value for potentiation and a maximum extent of potentiation by the compound at this concentration of agonist is determined by non-linear curve fitting. If the compound acts as an antagonist, an IC50 value is determined by non-linear curve fitting. In the second mode, several fixed concentrations of the disclosed compounds are added to various wells on a plate, followed by a range in concentrations of agonist for each concentration of disclosed compound. The EC50 values for the agonist at each concentration of compound are determined by non-linear curve fitting. A decrease in the EC50 value of the agonist with increasing concentrations of the sample compound (a leftward shift of the agonist concentration-response curve) is an indication of the degree of mGluR4 potentiation at a given concentration of the sample compound. A decrease in the maximal response of the agonist with increasing concentrations of the sample compounds, with or without a rightward shift in agonist potency, is an indication of the degree of antagonism at mGluR4. The second mode also indicates whether the sample compounds also affect the maximum response to mGluR4 to agonists.

Data set [1] is described as follows: Brain-plasma Kp (CNS penetration). It counts as in vivo. To be noted: rat, brain and plasma; species not given.

T1 sequence (Q14833 33-912): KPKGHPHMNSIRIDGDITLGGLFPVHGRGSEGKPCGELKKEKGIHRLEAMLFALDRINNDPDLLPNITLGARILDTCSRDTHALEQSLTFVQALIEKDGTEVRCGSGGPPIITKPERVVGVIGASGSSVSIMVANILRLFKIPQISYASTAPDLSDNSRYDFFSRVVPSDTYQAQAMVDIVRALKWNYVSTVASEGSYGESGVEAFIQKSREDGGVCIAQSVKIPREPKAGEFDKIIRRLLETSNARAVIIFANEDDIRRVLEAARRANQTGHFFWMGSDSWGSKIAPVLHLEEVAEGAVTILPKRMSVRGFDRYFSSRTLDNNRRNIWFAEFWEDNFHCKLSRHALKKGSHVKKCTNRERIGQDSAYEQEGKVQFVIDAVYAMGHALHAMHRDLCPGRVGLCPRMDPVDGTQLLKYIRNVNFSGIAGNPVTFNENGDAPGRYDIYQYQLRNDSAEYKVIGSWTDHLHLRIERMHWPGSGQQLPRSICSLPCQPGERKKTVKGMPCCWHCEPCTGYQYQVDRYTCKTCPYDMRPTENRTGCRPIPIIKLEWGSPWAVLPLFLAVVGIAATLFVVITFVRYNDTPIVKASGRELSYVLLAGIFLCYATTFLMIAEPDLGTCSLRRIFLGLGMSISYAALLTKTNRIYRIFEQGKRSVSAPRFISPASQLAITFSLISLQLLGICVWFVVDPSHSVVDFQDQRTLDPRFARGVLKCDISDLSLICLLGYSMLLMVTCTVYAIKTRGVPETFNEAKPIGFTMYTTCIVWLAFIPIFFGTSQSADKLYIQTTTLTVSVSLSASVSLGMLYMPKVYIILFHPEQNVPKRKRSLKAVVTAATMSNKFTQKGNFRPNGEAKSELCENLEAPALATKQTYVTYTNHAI

Consider `Cn1nc(OCC2CCCOC2)c2ccc(NC(=O)c3ccc(F)cn3)cc21` (stereo not shown), for which the pEC50 on human mGlu4 (second chart, read-out: hmGluR4 PAM EC50) was 7.00. In data set [1], this compound had a concentration ratio (Kp) of 3.29.
`CC(C)Oc1nn(C)c2cc(Nc3n[nH]c4cccnc34)ccc12` [Compound 1]: the pEC50 on human mGlu4 (read-out: mGlu4 PAM EC50) was 6.38.
With `Cc1cc(COc2nn(C)c3cc(Nc4n[nH]c5cccnc45)ccc23)on1` [Compound 2], the pEC50 on human mGlu4 (read-out: mGlu4 PAM EC50) was 6.98.
The same measure, in the same setting: for `CC(C)COc1nn(C)c2cc(Nc3n[nH]c4cccnc34)ccc12` [Compound 3] the value was 6.64; for `Cn1nc(OCc2cccnc2)c2ccc(Nc3n[nH]c4cccnc34)cc21` [Compound 6], 7.08; for `Cc1ccnc(C(=O)Nc2ccc3c(OCC4CCOC4)nn(C)c3c2)c1` (stereo not shown) [Compound 98], 6.00.
